From patent publication US10538544B1, “Method for administering cisplatin and a thiocyanate complex to treat ovarian cancer” (priority 2018, dated 2020)

Key:
[1] = system: A2780 S (cisplatin sensitive) human ovarian tumor cell line; assay: MTT assay, cell viability, 72 h, A2780 S; type: cell-based; conditions: read-out: IC50 Values against A2780 S
Procedure: (§1) MTT assay. The IC50 values in 72 hours of the compounds on human ovarian tumor cell lines, A2780 S (cisplatin sensitive) and A2780 CR (cisplatin resistance) were identified by cell viability test. 6000 cells per well in 100 μL cell media were seeded. After 24 h, all supernatant was aspirated out. Then 200 μL of drug solution is added to the first column of each well, and 100 μL of medium were added into the remaining well. The 100 μL of drug solution from first column was taken and mix well with the next column by repeated pipetting using a multichannel pipettor. The last two columns were leaved without drug addition to serve as blank control. After 72 h, supernatants in each well was replaced with 100 μL of 10% MTT (3-(4,5-dimethylthiazol-2-yl)-2,5-diphenyltetrazolium bromide) tetrazolium reduction assay solution, and incubated for at least 45 minutes at 37° C. After aspirating incubated solution, 100 μL of DMSO was added into each well to dissolve formazan crystals. The plates were then read using plate reader at 570 nm. The in vitro cytotoxicity of three platinum complexes (1), (2) and (3) was evaluated against a pair human ovarian tumor cell lines, A2780 S (cisplatin sensitive) and A2780 CR (cisplatin resistant). For comparison, anticancer activity of cisplatin was also evaluated under the same conditions. The IC50 values and cell viability curves are shown in Table 3 and FIG. 5 respectively.

[2] = system: A2780 CR (cisplatin resistant) human ovarian tumor cell line; assay: MTT assay, cell viability, 72 h, A2780 CR; type: cell-based; conditions: for IC50: MTT, 72 h, A2780 CR (cisplatin resistant), read-out: IC50 Values against A2780 CR; for Resistance factor: calculated from IC50 in A2780 CR and A2780 S
Procedure: as §1

[3] = background, literature; cited from earlier work
[4] = background, literature; cited from earlier work; remark: listed apart in the source

Row | Molecule | IC50 [1] | IC50 [2] | cytotoxicity compared with cisplatin against A2780 CR cells ([2]; A2780 CR cells, in words) | Resistance factor [2] | effectiveness as antiproliferative agent compared with cisplatin [3] | renal toxicity compared with cisplatin [4]
1 | N.N.[Cl][Pt][Cl] [Cisplatin] | 0.33 ± 0.011 µM | 6.37 ± 1 µM |  | 19.20 |  | 
2 | [Pt(ESDT)(Py)Cl] |  |  |  |  | more effective as antiproliferative agent than cisplatin | much lower renal toxicity

Further lines, with some results ahead:

Row | IC50 [1] | IC50 [2] | Molecule | cytotoxicity compared with cisplatin against A2780 CR cells ([2]; A2780 CR cells, in words) | Resistance factor [2] | effectiveness as antiproliferative agent compared with cisplatin [3] | renal toxicity compared with cisplatin [4]
3 | 5 ± 0.097 µM | 5.91 ± 0.92 µM | CC(C)CN(CC(C)C)C(=S)[S-].CC(C)CN(CC(C)C)C(=S)[S-].[Pt+2] [(1), [Pt(S2CN^i Bu2)2]] | better cytotoxicity than cisplatin | 1.18 |  | 
4 | 8.92 ± 0.58 µM | 8.83 ± 0.83 µM | CC(C)N(C(=S)[S-])C(C)C.CC(C)N(C(=S)[S-])C(C)C.[Pt+2] [(3), [Pt(S2CN^i Pr2)2]] |  | 1.00 |  | 
5 | 16.4 ± 1.35 µM | 15 ± 1.21 µM | [Pt(S2CNBn2)2].py [(2)] |  | 0.92 |  | 
